Assay results from US11753445B2, “Therapeutic peptides” (COHBAR, INC., priority 2016, dated 2023).

Legend:
3T3-L1 Adipocytes = experiment: Free fatty acid levels in cultured mouse 3T3-L1 adipocytes, isoproterenol stimulated (Example 2); type: cell-based; details: test peptides 25 μM; isoproterenol 1 nM
Method in brief: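 3T3-L1 cells differentiated 12–17 days into adipocytes, then exposed to test peptides at 25 μM final for 18–20 h, then 1 h, then 3 h with isoproterenol (1 nM) at 37 °C. Free fatty acids in the medium measured colorimetrically at 540 nm, corrected for untreated background and expressed relative to isoproterenol-only cells.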

[1] = Stability in mouse plasma, peptides 10 uM (Example 15); type: in vitro ADME; details: mouse plasma 37° C., peptide 10 uM; for remaining at 0.25 h, 10 uM / remaining at 0.5 h, 10 uM / remaining at 1 h, 10 uM / remaining at 2 h, 10 uM / remaining at 3 h, 10 uM: pooled mouse plasma; for remaining at 0.25 h, 10 uM: 15 min, read-out: % Remaining at Each Time Point: 15 min; for remaining at 0.5 h, 10 uM: 30 min, read-out: % Remaining at Each Time Point: 30 min; for remaining at 1 h, 10 uM: 60 min, read-out: % Remaining at Each Time Point: 60 min; for remaining at 2 h, 10 uM: 120 min, read-out: % Remaining at Each Time Point: 120 min; for remaining at 3 h, 10 uM: 180 min, read-out: % Remaining at Each Time Point: 180 min
Procedure: Peptides (10 uM) were incubated in pooled mouse plasma at 37° C. and samples were removed and immediately analyzed for the concentration of intact peptide by LC/MS/MS over the course of 3 hours. The percent of peptide remaining in plasma at each time point was calculated relative to the initial peak area (Table 13).

H-MRWQDMGYIFYPRRLR-OH [compound 126]
Free Fatty Acid Levels in 3T3-L1 Adipocytes Expressed as a Percent of Isoproterenol Control: Percent of Control Value (3T3-L1 Adipocytes): 55.6%

H-MRWQEMEYIFYPRKLR-OH [compound 173]
Free Fatty Acid Levels in 3T3-L1 Adipocytes Expressed as a Percent of Isoproterenol Control: Percent of Control Value (3T3-L1 Adipocytes): 43.9%

H-MRWQEMGEIFEPRKLR-OH [compound 134]
Free Fatty Acid Levels in 3T3-L1 Adipocytes Expressed as a Percent of Isoproterenol Control: Percent of Control Value (3T3-L1 Adipocytes): 56.2%

H-MRWQEMGEIFYPRKLR-OH [compound 174]
Free Fatty Acid Levels in 3T3-L1 Adipocytes Expressed as a Percent of Isoproterenol Control: Percent of Control Value (3T3-L1 Adipocytes): 38.8%

H-MRWQEMGYEFYPRKLR-OH [compound 175]
Free Fatty Acid Levels in 3T3-L1 Adipocytes Expressed as a Percent of Isoproterenol Control: Percent of Control Value (3T3-L1 Adipocytes): 50.6%

H-MRWQEMGYIEYPRKLR-OH [compound 176]
Free Fatty Acid Levels in 3T3-L1 Adipocytes Expressed as a Percent of Isoproterenol Control: Percent of Control Value (3T3-L1 Adipocytes): 57.0%

H-MRWQEMGYIF-OH [compound 50]
Free Fatty Acid Levels in 3T3-L1 Adipocytes Expressed as a Percent of Isoproterenol Control: Percent of Control Value (3T3-L1 Adipocytes): 97.4%

H-MRWQEMGYIFEPRKLR-OH [compound 177]
Free Fatty Acid Levels in 3T3-L1 Adipocytes Expressed as a Percent of Isoproterenol Control: Percent of Control Value (3T3-L1 Adipocytes): 61.4%

H-MRWQEMGYIFY-OH [compound 49]
Free Fatty Acid Levels in 3T3-L1 Adipocytes Expressed as a Percent of Isoproterenol Control: Percent of Control Value (3T3-L1 Adipocytes): 103.3%

H-MRWQEMGYIFYERKLR-OH [compound 178]
Free Fatty Acid Levels in 3T3-L1 Adipocytes Expressed as a Percent of Isoproterenol Control: Percent of Control Value (3T3-L1 Adipocytes): 67.6%

H-MRWQEMGYIFYP-OH [compound 48]
Free Fatty Acid Levels in 3T3-L1 Adipocytes Expressed as a Percent of Isoproterenol Control: Percent of Control Value (3T3-L1 Adipocytes): 57.1%

H-MRWQEMGYIFYPEKLR-OH [compound 179]
Free Fatty Acid Levels in 3T3-L1 Adipocytes Expressed as a Percent of Isoproterenol Control: Percent of Control Value (3T3-L1 Adipocytes): 47.2%

H-MRWQEMGYIFYPKKLR-OH [compound 123]
Free Fatty Acid Levels in 3T3-L1 Adipocytes Expressed as a Percent of Isoproterenol Control: Percent of Control Value (3T3-L1 Adipocytes): 58.8%

H-MRWQEMGYIFYPRELR-OH [compound 180]
Free Fatty Acid Levels in 3T3-L1 Adipocytes Expressed as a Percent of Isoproterenol Control: Percent of Control Value (3T3-L1 Adipocytes): 47.0%

H-MRWQEMGYIFYPRKER-OH [compound 181]
Free Fatty Acid Levels in 3T3-L1 Adipocytes Expressed as a Percent of Isoproterenol Control: Percent of Control Value (3T3-L1 Adipocytes): 58.9%

H-MRWQEMGYIFYPRKLE-OH [compound 182]
Free Fatty Acid Levels in 3T3-L1 Adipocytes Expressed as a Percent of Isoproterenol Control: Percent of Control Value (3T3-L1 Adipocytes): 36.6%

H-MRWQEMGYIFYPRKLK-OH [compound 124]
Free Fatty Acid Levels in 3T3-L1 Adipocytes Expressed as a Percent of Isoproterenol Control: Percent of Control Value (3T3-L1 Adipocytes): 68.9%

H-MRWQEMGYIFYPRRLR-OH [compound 125]
Free Fatty Acid Levels in 3T3-L1 Adipocytes Expressed as a Percent of Isoproterenol Control: Percent of Control Value (3T3-L1 Adipocytes): 50.2%

H-MRWQEMNYIFYP-NH2 [compound 287]
Free Fatty Acid Levels in 3T3-L1 Adipocytes Expressed as a Percent of Isoproterenol Control: Percent of Control Value (3T3-L1 Adipocytes): 78.1% | % Remaining at Each Time Point: 0 min [1]: 100% | remaining at 0.25 h, 10 uM [1]: 64% | remaining at 0.5 h, 10 uM [1]: 45.2% | remaining at 1 h, 10 uM [1]: 26.8% | remaining at 2 h, 10 uM [1]: 8.76% | remaining at 3 h, 10 uM [1]: 2.93%

H-MRWQEMNYIFYP-OH [compound 282]
Free Fatty Acid Levels in 3T3-L1 Adipocytes Expressed as a Percent of Isoproterenol Control: Percent of Control Value (3T3-L1 Adipocytes): 71.8% | % Remaining at Each Time Point: 0 min [1]: 100% | remaining at 0.25 h, 10 uM [1]: 34.9% | remaining at 0.5 h, 10 uM [1]: 25.7% | remaining at 1 h, 10 uM [1]: 1.92% | remaining at 2 h, 10 uM [1]: 0.41% | remaining at 3 h, 10 uM [1]: 0.29%

H-QEMGYIFYPRKL-OH [compound 270]
Free Fatty Acid Levels in 3T3-L1 Adipocytes Expressed as a Percent of Isoproterenol Control: Percent of Control Value (3T3-L1 Adipocytes): 66.9% | % Remaining at Each Time Point: 0 min [1]: 100% | remaining at 0.25 h, 10 uM [1]: 13.8% | remaining at 0.5 h, 10 uM [1]: 3.22% | remaining at 1 h, 10 uM [1]: 0.59% | remaining at 2 h, 10 uM [1]: 0.36% | remaining at 3 h, 10 uM [1]: 0.21%

H-RWQEENYIAYPR-OH [compound 260]
Free Fatty Acid Levels in 3T3-L1 Adipocytes Expressed as a Percent of Isoproterenol Control: Percent of Control Value (3T3-L1 Adipocytes): 75.9% | % Remaining at Each Time Point: 0 min [1]: 100% | remaining at 0.25 h, 10 uM [1]: 79.4% | remaining at 0.5 h, 10 uM [1]: 68.8% | remaining at 1 h, 10 uM [1]: 53.1% | remaining at 2 h, 10 uM [1]: 35.7% | remaining at 3 h, 10 uM [1]: 35.9%

H-RWQEEQYIAEPR-OH [compound 266]
Free Fatty Acid Levels in 3T3-L1 Adipocytes Expressed as a Percent of Isoproterenol Control: Percent of Control Value (3T3-L1 Adipocytes): 72.7% | % Remaining at Each Time Point: 0 min [1]: 100% | remaining at 0.25 h, 10 uM [1]: 70.7% | remaining at 0.5 h, 10 uM [1]: 72.3% | remaining at 1 h, 10 uM [1]: 38.3% | remaining at 2 h, 10 uM [1]: 74.8% | remaining at 3 h, 10 uM [1]: 51.1%

H-RWQEEQYIAYPR-OH [compound 265]
Free Fatty Acid Levels in 3T3-L1 Adipocytes Expressed as a Percent of Isoproterenol Control: Percent of Control Value (3T3-L1 Adipocytes): 66.7% | % Remaining at Each Time Point: 0 min [1]: 100% | remaining at 0.25 h, 10 uM [1]: 83.3% | remaining at 0.5 h, 10 uM [1]: 74.5% | remaining at 1 h, 10 uM [1]: 54.9% | remaining at 2 h, 10 uM [1]: 56% | remaining at 3 h, 10 uM [1]: 51.7%

H-RWQEMNYIFYPR-OH [compound 248]
Free Fatty Acid Levels in 3T3-L1 Adipocytes Expressed as a Percent of Isoproterenol Control: Percent of Control Value (3T3-L1 Adipocytes): 50.4%
